{
  "source": "ChEMBL document CHEMBL4130359",
  "about": "“Indazole-based ligands for estrogen-related receptor α as potential anti-diabetic agents” (Eur J Med Chem, 2017)",
  "key": {"[1]": {"test_system": "Rattus norvegicus", "experiment": "Antidiabetic activity in […] model assessed as HbA1C level at 3 mg/kg, po qd for 31 days measured on day 32 post dose (reference value: 5.9 +/- 0.18%)", "type": "functional"}, "[2]": {"test_system": "Rattus norvegicus", "experiment": "Toxicity in Zucker rat sub-chronic fa/fa prediabetic model assessed as serum creatinine level at 10 mg/kg, po qd for 31 days measured on day 32 (reference value: 0.71 +/- 0.07 mg/dl)", "type": "organism-based", "conditions": "in vivo, 744 h"}, "[3]": {"test_system": "Rattus norvegicus", "experiment": "Effect on RRAS2 gene expression in epididymal white adipose tissue of Zucker rat sub-chronic fa/fa prediabetic model at 10 mg/kg, po qd for 15 days by microarray analysis relative to control", "type": "functional"}, "[4]": {"experiment": "Tmax in Sprague-Dawley rat at 10 mg/kg administered via oral gavage by LC-MS analysis", "type": "ADME, organism-based", "conditions": "in vivo"}, "[5]": {"test_system": "Rattus norvegicus", "experiment": "Toxicity in Zucker rat sub-chronic fa/fa prediabetic model assessed as brown adipose tissue weight at 50 mg/kg, po qd for 31 days measured on day 32 (reference value: 2.1 +/- 0.3 g)", "type": "organism-based", "conditions": "in vivo, 744 h"}, "[6]": {"target": "Peroxisome proliferator-activated receptor alpha (Homo sapiens, UniProt Q07869)", "sequence (Q07869 whole entry, the tested form may be a part)": "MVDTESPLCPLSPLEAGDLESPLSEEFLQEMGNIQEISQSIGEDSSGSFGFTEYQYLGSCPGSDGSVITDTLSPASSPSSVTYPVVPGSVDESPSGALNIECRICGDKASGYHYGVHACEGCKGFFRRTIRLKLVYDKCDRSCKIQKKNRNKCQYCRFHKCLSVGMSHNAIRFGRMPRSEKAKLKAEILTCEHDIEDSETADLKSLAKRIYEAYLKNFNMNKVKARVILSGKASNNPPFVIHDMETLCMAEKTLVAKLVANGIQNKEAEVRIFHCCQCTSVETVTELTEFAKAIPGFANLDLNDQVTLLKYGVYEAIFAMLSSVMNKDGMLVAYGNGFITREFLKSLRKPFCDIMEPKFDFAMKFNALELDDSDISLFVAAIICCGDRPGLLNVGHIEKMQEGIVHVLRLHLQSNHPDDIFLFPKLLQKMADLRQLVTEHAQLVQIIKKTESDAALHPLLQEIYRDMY", "experiment": "Agonist activity at recombinant GST-tagged human PPARalpha LBD assessed as fluorescein-labeled coactivator peptide recruitment preincubated with enzyme followed by coactivator addition by LanthaScreen TR-FRET assay"}, "[7]": {"experiment": "Volume of distribution at steady state in CD-1 mouse at 5 mg/kg, iv by LC-MS analysis", "type": "ADME, organism-based", "conditions": "in vivo, read-out: Vdss"}, "[8]": {"test_system": "Rattus norvegicus", "experiment": "Effect on PRDX3 gene expression in epididymal white adipose tissue of Zucker rat sub-chronic fa/fa prediabetic model at 10 mg/kg, po qd for 15 days by microarray analysis relative to control", "type": "functional"}, "[9]": {"test_system": "Rattus norvegicus", "experiment": "Toxicity in Zucker rat sub-chronic fa/fa prediabetic model assessed as increase in food consumption at 10 mg/kg, po qd during 10 days study", "type": "organism-based", "conditions": "in vivo, 240 h"}, "[10]": {"target": "Peroxisome proliferator-activated receptor delta (Homo sapiens, UniProt Q03181)", "sequence (Q03181 whole entry, the tested form may be a part)": "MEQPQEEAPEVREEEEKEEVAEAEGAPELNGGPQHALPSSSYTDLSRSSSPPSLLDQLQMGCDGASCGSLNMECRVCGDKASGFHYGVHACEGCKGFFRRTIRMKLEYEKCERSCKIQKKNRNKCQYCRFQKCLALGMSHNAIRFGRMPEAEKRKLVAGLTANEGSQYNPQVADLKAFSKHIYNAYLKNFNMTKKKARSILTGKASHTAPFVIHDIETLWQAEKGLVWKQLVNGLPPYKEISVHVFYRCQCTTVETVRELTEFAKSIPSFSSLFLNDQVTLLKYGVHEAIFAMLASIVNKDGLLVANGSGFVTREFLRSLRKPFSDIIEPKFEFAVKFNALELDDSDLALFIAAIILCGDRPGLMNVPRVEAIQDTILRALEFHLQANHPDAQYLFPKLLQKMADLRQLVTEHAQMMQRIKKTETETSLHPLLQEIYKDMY", "experiment": "Agonist activity at recombinant GST-tagged human PPARdelta LBD assessed as fluorescein-labeled coactivator peptide recruitment preincubated with enzyme followed by coactivator addition by LanthaScreen TR-FRET assay"}, "[11]": {"test_system": "Rattus norvegicus", "experiment": "Toxicity in Zucker rat sub-chronic fa/fa prediabetic model assessed as serum triglyceride level at 10 mg/kg, po qd for 31 days measured on day 32 (reference value: 1382 +/- 268 mg/dl)", "type": "organism-based", "conditions": "in vivo, 744 h"}, "[12]": {"test_system": "Rattus norvegicus", "experiment": "Effect on PRKCD gene expression in epididymal white adipose tissue of Zucker rat sub-chronic fa/fa prediabetic model at 10 mg/kg, po qd for 15 days by microarray analysis relative to control", "type": "functional"}, "[13]": {"test_system": "Rattus norvegicus", "experiment": "Toxicity in Zucker rat sub-chronic fa/fa prediabetic model assessed as serum triglyceride level at 3 mg/kg, po qd for 31 days measured on day 32 (reference value: 1382 +/- 268 mg/dl)", "type": "organism-based", "conditions": "in vivo, 744 h"}, "[14]": {"test_system": "Rattus norvegicus", "experiment": "Effect on PIK3CD gene expression in epididymal white adipose tissue of Zucker rat sub-chronic fa/fa prediabetic model at 10 mg/kg, po qd for 15 days by microarray analysis relative to control", "type": "functional"}, "[15]": {"test_system": "Rattus norvegicus", "experiment": "Toxicity in Zucker rat sub-chronic fa/fa prediabetic model assessed as heart weight at 1 mg/kg, po qd for 31 days measured on day 32 (reference value: 1.19 +/- 0.04 g)", "type": "organism-based", "conditions": "in vivo, 744 h"}, "[16]": {"test_system": "Rattus norvegicus", "experiment": "Effect on NDUFS1 gene expression in epididymal white adipose tissue of Zucker rat sub-chronic fa/fa prediabetic model at 10 mg/kg, po qd for 15 days by microarray analysis relative to control", "type": "functional"}, "[17]": {"test_system": "Rattus norvegicus", "experiment": "Toxicity in Zucker rat sub-chronic fa/fa prediabetic model assessed as triglyceride level per gram liver at 3 mg/kg, po qd for 31 days measured on day 32 (reference value: 163.4 +/- 8.3 mg)", "type": "organism-based", "conditions": "in vivo, 744 h"}, "[18]": {"test_system": "Rattus norvegicus", "experiment": "Toxicity in […] model assessed as serum BUN level at 50 mg/kg, po qd for 31 days measured on day 32 (reference value: 28.3 +/- […])", "type": "organism-based", "conditions": "in vivo, 744 h"}, "[19]": {"test_system": "Rattus norvegicus", "experiment": "Antidiabetic activity in Zucker rat sub-chronic fa/fa prediabetic model assessed as increase in serum adiponectin level at 50 mg/kg, po qd for 32 days by ELISA relative to control", "type": "functional"}, "[20]": {"test_system": "Rattus norvegicus", "experiment": "Antidiabetic activity in Zucker rat sub-chronic fa/fa prediabetic model assessed as blood insulin AUC (0 to 120 min) at 1 mg/kg, po qd for 31 days measured on day 29 post dose (reference value: 1503 +/- 160 ug.min/L)", "type": "functional, organism-based", "design": "time < 2 hr, dose 1 mg/kg"}, "[21]": {"test_system": "Rattus norvegicus", "experiment": "Effect on ACOT2 gene expression in epididymal white adipose tissue of Zucker rat sub-chronic fa/fa prediabetic model at 10 mg/kg, po qd for 15 days by microarray analysis relative to control", "type": "functional"}, "[22]": {"test_system": "Rattus norvegicus", "experiment": "Effect on TGFB1 gene expression in epididymal white adipose tissue of Zucker rat sub-chronic fa/fa prediabetic model at 10 mg/kg, po qd for 15 days by microarray analysis relative to control", "type": "functional"}, "[23]": {"experiment": "Cmax in […] chronic ob/ob model at 50 mg/kg, po qd for 28 days measured on day 28 post last dose", "type": "ADME, organism-based", "design": "dose 50 mg/kg, route oral", "conditions": "in vivo"}, "[24]": {"test_system": "Rattus norvegicus", "experiment": "Effect on GHR gene expression in epididymal white adipose tissue of Zucker rat sub-chronic fa/fa prediabetic model at 10 mg/kg, po qd for 15 days by microarray analysis relative to control", "type": "functional"}, "[25]": {"test_system": "Rattus norvegicus", "experiment": "Antidiabetic activity in Zucker rat sub-chronic fa/fa prediabetic model assessed as fasting blood glucose level at 1 mg/kg, po qd for 31 days measured on day 29 post dose (reference value: 163 +/- 9.2 mg/dl)", "type": "functional"}, "[26]": {"test_system": "Rattus norvegicus", "experiment": "Effect on GNPAT gene expression in epididymal white adipose tissue of Zucker rat sub-chronic fa/fa prediabetic model at 10 mg/kg, po qd for 15 days by microarray analysis relative to control", "type": "functional"}, "[27]": {"experiment": "Terminal half life in […] at 15 mg/kg administered via oral gavage by LC-MS analysis", "type": "ADME, organism-based", "conditions": "in vivo, read-out: beta t1/2 (converted)"}, "[28]": {"test_system": "Rattus norvegicus", "experiment": "Toxicity in Zucker rat sub-chronic fa/fa prediabetic model assessed as serum creatinine level at 1 mg/kg, po qd for 31 days measured on day 32 (reference value: 0.71 +/- 0.07 mg/dl)", "type": "organism-based", "conditions": "in vivo, 744 h"}, "[29]": {"test_system": "Rattus norvegicus", "experiment": "Toxicity in […] model assessed as serum ALT level at 10 mg/kg, po qd for 31 days measured on day 32 (reference value: 127 +/- 9 U/L)", "type": "organism-based", "conditions": "in vivo, 744 h"}, "[30]": {"test_system": "Rattus norvegicus", "experiment": "Antidiabetic activity in Zucker rat sub-chronic fa/fa prediabetic model assessed as fasting blood glucose level at 50 mg/kg, po qd for 31 days measured on day 29 post dose (reference value: 163 +/- 9.2 mg/dl)", "type": "functional"}, "[31]": {"test_system": "Rattus norvegicus", "experiment": "Increase in ANGPTL4 mRNA expression in epididymal white adipose tissue of Zucker rat sub-chronic fa/fa prediabetic model at 10 mg/kg, po qd for 15 days by RT-PCR method", "type": "functional, organism-based"}, "[32]": {"test_system": "Rattus norvegicus", "experiment": "Effect on IL36B gene expression in epididymal white adipose tissue of Zucker rat sub-chronic fa/fa prediabetic model at 10 mg/kg, po qd for 15 days by microarray analysis relative to control", "type": "functional"}},
  "note": "Active and inactive are the calls of the source. No cut-off for these calls is given here.",
  "data": [
    {"smiles": "CN1CC[C@@H](N2C(=O)S/C(=C\\c3ccc4c(cnn4Cc4ccc(Cl)cc4C(F)(F)F)c3)C2=O)[C@H](F)C1", "values": [
      {"measurement": "Activity", "setting": "[1]", "result": 5.7, "unit": "%"},
      {"measurement": "Activity", "setting": "[2]", "result": 0.57, "unit": "mg/dL"},
      {"measurement": "fold change (FC)", "setting": "[3]", "result": 1.235},
      {"measurement": "Tmax", "setting": "[4]", "result": 1.5, "unit": "h"},
      {"measurement": "Activity", "setting": "[5]", "result": 10.3, "unit": "g"},
      {"measurement": "EC50", "setting": "[6]", "result": "> 10", "unit": "µM"},
      {"measurement": "Vd", "setting": "[7]", "result": 6.89, "unit": "L/kg"},
      {"measurement": "fold change (FC)", "setting": "[8]", "result": 1.559},
      {"measurement": "Activity", "setting": "[9]", "result": "Non-Toxic"},
      {"measurement": "EC50", "setting": "[10]", "result": "> 10", "unit": "µM"},
      {"measurement": "Activity", "setting": "[11]", "result": 341, "unit": "mg/dL"},
      {"measurement": "fold change (FC)", "setting": "[12]", "result": -1.615},
      {"measurement": "Activity", "setting": "[13]", "result": 584, "unit": "mg/dL"},
      {"measurement": "fold change (FC)", "setting": "[14]", "result": -1.312},
      {"measurement": "Activity", "setting": "[15]", "result": 1.16, "unit": "g"},
      {"measurement": "fold change (FC)", "setting": "[16]", "result": 1.561},
      {"measurement": "Activity", "setting": "[17]", "result": 124.7, "unit": "mg"},
      {"measurement": "Activity", "setting": "[18]", "result": 29.5, "unit": "mg/dL"},
      {"measurement": "fold change (FC)", "setting": "[19]", "result": 3.3},
      {"measurement": "AUC", "setting": "[20]", "result": 16.6, "unit": "ng·h/mL"},
      {"measurement": "fold change (FC)", "setting": "[21]", "result": 1.364},
      {"measurement": "fold change (FC)", "setting": "[22]", "result": -1.47},
      {"measurement": "Cmax", "setting": "[23]", "result": 1680, "unit": "ng/mL"},
      {"measurement": "fold change (FC)", "setting": "[24]", "result": 1.276},
      {"measurement": "Activity", "setting": "[25]", "result": 123, "unit": "mg/dL"},
      {"measurement": "fold change (FC)", "setting": "[26]", "result": 1.212},
      {"measurement": "half-life", "setting": "[27]", "result": 6.7, "unit": "h"},
      {"measurement": "Activity", "setting": "[28]", "result": 0.66, "unit": "mg/dL"},
      {"measurement": "Activity", "setting": "[29]", "result": 135, "unit": "U/L"},
      {"measurement": "Activity", "setting": "[30]", "result": 105, "unit": "mg/dL"},
      {"measurement": "Activity", "setting": "[31]", "result": "Active"},
      {"measurement": "fold change (FC)", "setting": "[32]", "result": -1.232}
    ]}
  ]
}
